Data taken from patent US9587220B2, “Method for inducing cardiac differentiation of pluripotent stem cell” (Kyoto University, priority 2012, dated 2017).
Entries after “also recorded” stand apart in the source; their conditions may differ. Where two headings read alike, the source gives them in different places.

How the values were obtained:
[1] = system: human αMHC promoter-driven EGFP transgenic monkey ESCs; assay: αMHC promoter-driven GFP expression, cardiac differentiation of transgenic monkey ESCs (HCA); type: cell-based; conditions: for intensity of the GFP signal driven by αMHC promoter: comparison of chemical and proteinaceous WNT inhibitors, FIG. 3b,c
From the text: To generate human αMHC promoter-driven EGFP-expressing monkey ESCs, the 918 bp upstream from the transcriptional starting site and the third exon just before the open reading frame were amplified from genomic DNAs of KhES-1 hESCs by PCR, using the following primer sets —forward primer, 5′- […]-3′ (SEQ ID No: 37); reverse primer, 5′- (including a SalI linker) 22 […]-3′ (SEQ ID No: 38)—and then ligated into pGEM-T Easy Vector (Promega). The HindIII/SalI fragment from the cloning vector was connected with pEGFP-1 (Clontech). The linearized αMHC-EFGP vector was introduced into CMK6.4 monkey ESCs by electroporation. Transgenic ESC clones were selectively grown with G418 (Sigma-Aldrich). The expression of EGEP was confirmed in beating colonies.
The confluent (4-5 d after passage) αMHC-GFP transgenic monkey ESCs were dissociated enzymatically by CTK solution (Non-patent literature 1), and the ESC clumps (40-100 μm in diameter) were obtained using 40 and 100 μm Cell Strainers (BD Biosciences). The ESC clumps (approximately 5.0×10^3 cells well^−1) were transferred onto 96-well plates (Greiner Bio-One, 96-well black plate, Cat. No. 655090) and incubated in cardiac differentiation medium as described in (4) below. During Days 6-14 of cardiac differentiation, 9600 compounds from the chemical library (dissolved in DMSO) were screened using 96-well plates. Sixteen and 80 wells were used for the control (0.1% DMSO) and chemical compounds (1 per well), respectively. Final concentration of the each compound was approximately 1-5 μM. Medium containing small molecules was changed every 4 d. On Day 14, GFP fluorescence of ESCs was measured by whole-plate scanning, using the Metamorph imaging system (Molecular Device). Metamorph software was used to analyze the GFP fluorescence data and calculate Fluorescence Area, Total Fluorescence Intensity, Average Fluorescence Intensity, and number of GFP-positive colonies for each well. Hit compounds were determined by the following criteria: Average Fluorescence Intensity of a well with the compound was >6 SD greater than Average Fluorescence Intensity of the control (mean of 16 wells), and Total Fluorescence Intensity for the compound was >0 SD greater than the control; or Total Fluorescence Intensity of the compound was >4 SD greater than the control, and Average Fluorescence Intensity of the compound was >0 SD greater than the control. One hundred and twenty compounds passed these criteria and were retested using 8 wells for each compound.
Confluent hESCs and hiPSCs were gently detached with CTK solution and transferred into Petri dishes (BD Biosciences) with Primate ES Cell Culture Medium (ReproCELL, Japan). Cells were held in suspension culture for 8-24 h to form aggregates. The sizes of hPSC aggregates (0.3-1 mm in diameter) are important for efficient differentiation. Following suspension culture, cell aggregates were attached to culture dishes (3-10×10^5 cells cm^−2) in cardiac differentiation medium: IMDM (Sigma), containing 20% FBS (Gibco), 1% MEM non-essential amino acid solution (Sigma), 1% Penicillin-Streptomycin (Gibco), 2 mM L-glutamine (Sigma), 0.001% 2-Mercaptoethanol (Gibco), and 0.005N NaOH, with 10 ng ml^−1 BMP4 (R&D Systems). The medium was changed to cardiac differentiation medium with 10 μM KY02111 and/or other WNT inhibitors added on Day 3 (hiPSC lines) or Day 4 (human or monkey ESC lines); XAV939 (Wako, Japan), IWP-2 (Santa Cruz Biotechnology), IWR-1 (Merck4Bioscience), IGFBP4 (R&D Systems), Dkk1 (R&D Systems) and the mixture of bFGF (R&D Systems), BMP4 (R&D Systems), VEGF (R&D Systems), DKK1 (R&D Systems), and Activin A (R&D Systems) (Non-patent literature 16). Medium was changed every 2-3 d. KY02111 and other WNT inhibitors were added until Day 9 for hiPSC lines and the monkey ESC line, or Day 14 for hESC lines. […]

[2] = system: human αMHC promoter-driven EGFP transgenic monkey ESCs; assay: as above; type: cell-based
[3] = system: WNT target genes in IMR90-1 hiPSCs; assay: Microarray and qPCR gene expression of WNT target genes; type: cell-based, human; conditions: 12, 24 and 72 h after treatment
Method: IMR90-1 iPSCs were cultured in cardiac differentiation medium containing serum. On Day 3, cells were treated with 10 μM KY02111 or 0.1% DMSO for 0, 12, or 24 h. Non-treated cells (0 h), cells treated with KY02111 for 12 h (KY12hr) or 24 h (KY24hr), and cells treated with 0.1% DMSO for 12 h (DMSO12hr) or 24 h (DMSO24hr) were used for microarray analysis. Total RNA was prepared using the RNeasy Mini Kit (Qiagen), according to the manufacturer's instructions. Synthesis of cDNA, in vitro transcription and biotin labeling cRNA, and hybridization to the Human Gene 1.0 ST array (Affymetrix) were performed according to Affymetrix protocols. Hybridized arrays were scanned using an Affymetrix GeneChip Scanner. Data normalization and further analysis were performed with GeneSpring GX (Agilent Technologies). Proportions of treated cells expressing genes relative to control (KY02111/DMSO) were calculated for each time point. […] The microarray data have been submitted to the Gene Expression Omnibus (GEO) public database at NCBI (GEO accession number, GSE33622).
Total RNA was isolated with an RNeasy Mini Kit (QIAGEN). Genomic DNA was completely digested with DNase I (Invitrogen). Total RNA (0.5 μg) was subjected to cDNA synthesis using the SuperScript III Reverse Transcriptase (Invitrogen). qRT-PCR was performed in triplicate, using SYBER GREEN PCR Master Mix on a 7500 Real Time PCR System (Applied Biosystems). The cycling conditions were as follows: 10 min at 95° C.; 40 cycles, each consisting of 15 s at 95° C.; 1 min at 60° C. Total RNA from human adult heart tissue (BioChain) was used to evaluate the expression levels of cardiac marker genes for cardiomyocytes derived from hPSCs. All values were normalized with respect to GAPDH expression level and expressed relative to the corresponding values in human adult hearts (100%).

[4] = system: KY-CM colony; assay: QT interval prolongation assay on microelectrode array; type: cell-based, human; conditions: astemizole 300 pM to 30 μM, increased every 4 min
Method: Microelectrode array (MEA) dishes (Multi Channel Systems, Reutlingen, Germany) were coated with ReproCoat (RCESD006, ReproCELL, Japan) in 5% CO2 for 1 h at 37° C. After coating, KY02111-induced cardiomyocytes at Day 30 were transferred into 1 ml of Cardiomyocyte Culture Medium (RCESD006, ReproCELL, Japan) on the MAE dish. Using a pipet tip or glass bar, the cardiomyocytes were gently moved onto the electrode and cultured overnight to attach to the MEA dishes. On the following day, the medium was changed into Cardiomyocyte Test Medium (RCESD003, ReproCELL, Japan). After confirming the presence of beating cardiomyocytes, the MEA dishes were attached to an MEA amplifier (Multi Channel Systems, Reutlingen, Germany), and electrocardiogram-like waves were recorded. After 2 min of recording, 300 pM astemizole (Sigma) or 0.1% DMSO were added, and the concentrations of astemizole (300 pM to 30 μM) were increased every 4 min. ECG-like waves were recorded after 2 min of each astemizole treatment. Beating rate, Na^+ amplitude, K^+ amplitude, and Na^+—K^+ interval were analyzed by LabChart™ software v7 (ADInstruments, Adelaide, Australia).

[5] = system: KY02111-induced cardiomyocytes (KY-CMs); conditions: depolarizing pulses -40 to +40 mV for 500 msec
Method: Cells were isolated from beating hPSC-derived cardiomyocytes, using protease solution. The dissociated cells were cultured for 3-7 d on gelatin-coated cover glasses. Patch-clamp recordings were performed in a temperature-controlled room at approximately 25° C. Data from the whole cell patch-clamp configuration were recorded from spontaneously beating cells, using a HEKA EPC10 amplifier (HEKA Instruments Inc.). An external solution containing 140 mM NaCl, 5 mM KCl, 10 mM HEPES, 2 mM CaCl2, 1 mM MgCl2, and 10 mM glucose was adjusted to pH 7.2 with NaOH. A pipette solution containing 80 mM K-aspartate, 50 mM KCl, 1 mM MgCl2, 10 mM EGTA, 3 mM ATP-Mg, and 10 mM HEPES was adjusted to pH 7.2 with KOH. […] The inhibitors were obtained from Sigma-Aldrich. […] The current-voltage relationship was obtained by holding the membrane potential at −40 to −60 mV, and delivering a depolarizing pulse for 500 ms in a stepwise manner, in increments from −60 to 60 mV for INa, −40 to 40 mV for ICaL, −40 to 40 mV for IKs and IKr, and −50 to −140 mV for Ih.

`COc1ccc2nc(NC(=O)Cc3ccc(OC)c(OC)c3)sc2c1` [N11474] was tested, and the “GFP fluorescence of ESCs compared to DMSO” value ([1]; chemical screening, treatment Days 6-14, P=0.015) was “significantly increased; also recorded: significantly enhanced”, the “αMHC promoter-driven EGFP signal on Day 14” value ([2]; treatment after Day 8 (Days 8-12 or Days 10-14)) was “less effective” and the “αMHC promoter-driven EGFP signal on Day 14” value ([2]; treatment on Days 0-4) was “completely repressed GFP expression; also recorded: completely suppressed GFP expression”. The “αMHC promoter-driven EGFP signal on Day 14” value ([2]; treatment on Days 4-8) was “maximized the increase in GFP expression; also recorded: most effective” and the “αMHC promoter-driven EGFP signal on Day 14” value ([2]; treatment on Days 6-10) was “similarly effective to the screening protocol”.

In the case of `O=C1Nc2cc(Br)ccc2/C1=C1/Nc2ccccc2/C1=N\O` [BIO], the “expression levels of WNT target genes by qPCR” value [3] is reported as “tended to augment”.

For `O=C(Nc1cccc2cccnc12)c1ccc(N2C(=O)[C@@H]3[C@H](C2=O)[C@@H]2C=C[C@H]3C2)cc1` [IWR-1, reference compound], the “intensity of the GFP signal driven by αMHC promoter” value (“intensity of the GFP signal driven” for short) [1] was “increased”.

For `COc1ccc(CCN2CCC(Nc3nc4ccccc4n3Cc3ccc(F)cc3)CC2)cc1` [astemizole], the “Na+-K+ interval of ECG-like waves” value [4] was “prolonged”.

For `CCS(=O)(=O)N(C)[C@H]1c2cc(C#N)ccc2OC(C)(C)[C@@H]1O` [chromanol293B], the “KCNQ1 current (IKs)” value [5] was “clearly detected” and the “KCNQ1 current (IKs)” value ([5]; listed as Chromanol293B) was “suppressed”.

For `COc1ccc(CCCC(=O)Nc2nc3ccc(Cl)cc3s2)cc1OC` [KY02114, 2-(4-(3,4-dimethoxyphenyl)butanamide)-6-chlorobenzothiazole], the “GFP expression level induced by N11474 and related compounds (structure-activity)” value ([1]; DMSO=100%) was “induced the highest levels”.

B1: DKK1: proteinaceous WNT inhibitor (protein, UniProt O94907 32-266, looked up)
Dickkopf-related protein 1: TLNSVLNSNAIKNLPPPLGGAAGHPGSAVSAAPGILYPGGNKYQTIDNYQPYPCAEDEECGTDEYCASPTRGGDAGVQICLACRKRRKRCMRHAMCCPGNYCKNGICVSSDQNHFRGEIEETITESFGNDHSTLDGYSRRTTLSSKMYHTKGQEGSVCLRSSDCASGLCCARHFWSKICKPVLKEGQVCTKHRRKGSHGLEIFQRCYCGEGLSCRIQKDHHQASNSSRLHTCQRH
In the case of B1, the “intensity of the GFP signal driven” value [1] is reported as “increased”.

B2: IGFBP4: proteinaceous WNT inhibitor (protein, UniProt P22692 22-258, looked up)
Insulin-like growth …: DEAIHCPPCSEEKLARCRPPVGCEELVREPGCGCCATCALGLGMPCGVYTPRCGSGLRCYPPRGVEKPLHTLMHGQGVCMELAEIEAIQESLQPSDKDEGDHPNNSFSPCSAHDRRCLQKHFAKIRDRSTSGGKMKVNGAPREDARPVPQGSCQSELHRALERLAASQSRTHEDLYIIPIPNCDRNGNFHPKQCHPALDGQRGKCWCVDRKTGVKLPGGLEPKGELDCHQLADSFRE
For B2, the “intensity of the GFP signal driven” value [1] was “increased”.
